Measurements from US6222043A, “Methods of preparing novel dipeptide compounds or pharmaceutically acceptable salts thereof” (Japan Energy Corporation, priority 1995, dated 2001).

Assay: Pharmacokinetics in rats, intravenous or intraduodenal administration
Type: in vivo
Details: rat
Protocol: Metabolic characteristics of the dipeptide compounds of the present invention was evaluated using rats. Tested compounds dissolved in vehicle was administered intraduodenally or intravenously. After administration, blood was taken and the concentration of residual tested compound in plasma was analyzed. The dosage of the tested compound was described in table 3.

Row | AUC (i.d., 20.0 mg/kg) | F (bioavailability on intraduodenal administration) (i.d., 20.0 mg/kg) | AUC (i.v., 10.0 mg/kg) | MRT (i.v., 10.0 mg/kg) | t1/2 (λ) (i.v., 10.0 mg/kg) | AUC (i.d., 10.0 mg/kg) | F (bioavailability on intraduodenal administration) (i.d., 10.0 mg/kg) | SMILES
1 | – | – | 174 µg/mL/min | 88.9 min | 83.90 min | 64 µg/mL/min | 37.01% | CCc1c(O)cccc1C(=O)N[C@@H](Cc1ccccc1)[C@H](O)C(=O)N1CSC(C)(C)[C@H]1C(=O)NC(C)(C)C [Compound of example 36, (R)-N-tert-butyl-3-[(2S,3S)-3-(2-ethyl-3-hydroxybenzoyl)amino-2-hydroxy-4-phenylbutanoyl]-5,5-dimethyl-1,3-thiazolidine-4-carboxamide]
2 | 106 µg/mL/min | 47.53% | 111 µg/mL/min | 22.9 min | 23.89 min | – | – | Cc1c(O)cccc1C(=O)N[C@@H](Cc1ccccc1)[C@H](O)C(=O)N1CSC(C)(C)[C@H]1C(=O)NC(C)(C)C [Compound of example 22, (R)-N-tert-butyl-3-[(2S,3S)-2-hydroxy-3-[3-hydroxy-2-methylbenzoyl]amino-4-phenylbutanoyl]-5,5-dimethyl-1,3-thiazolidine-4-carboxamide]
3 | – | – | 124 µg/mL/min | 31.9 min | 40.51 min | 40 µg/mL/min | 32.26% | Cc1ccccc1CNC(=O)[C@@H]1CSCN1C(=O)[C@@H](O)[C@H](Cc1ccccc1)NC(=O)c1cccc(O)c1C [Compound of example 34, (R)-N-(2-methylbenzyl)-3-[(2S,3S)-3-(3-hydroxy-2-methylbenzoyl)amino-2-hydroxy-4-phenylbutanoyl]-1,3-thiazolidine-4-carboxamide]
4 | – | – | 131 µg/mL/min | 74.7 min | 92.63 min | 55 µg/mL/min | 41.55% | Cc1ccccc1CNC(=O)[C@H]1N(C(=O)[C@@H](O)[C@H](Cc2ccccc2)NC(=O)c2cccc(O)c2C)CSC1(C)C [Compound of example 37, (R)-N-(2-methylbenzyl)-3-[(2S,3S)-3-(3-hydroxy-2-methylbenzoyl)amino-2-hydroxy-4-phenylbutanoyl]-5,5-dimethyl-1,3-thiazolidine-4-carboxamide]

More lines, now with the values behind:

Row | SMILES | AUC (i.d., 20.0 mg/kg) | F (bioavailability on intraduodenal administration) (i.d., 20.0 mg/kg) | AUC (i.v., 10.0 mg/kg) | MRT (i.v., 10.0 mg/kg) | t1/2 (λ) (i.v., 10.0 mg/kg) | AUC (i.d., 10.0 mg/kg) | F (bioavailability on intraduodenal administration) (i.d., 10.0 mg/kg)
5 | Cc1c(O)cccc1C(=O)N[C@@H](Cc1ccccc1)[C@H](O)C(=O)N1CSC[C@H]1C(=O)NC(C)(C)C [Compound of example 21, (R)-N-tert-butyl-3-[(2S,3S)-2-hydroxy-3-[3-hydroxy-2-methylbenzoyl]amino-4-phenylbutanoyl]-1,3-thiazolidine-4-carboxamide] | 101 µg/mL/min | 45.41% | 111 µg/mL/min | 31.7 min | 35.98 min | – | –
6 | CCc1c(O)cccc1C(=O)N[C@@H](Cc1ccccc1)[C@H](O)C(=O)N1CSC[C@H]1C(=O)NC(C)(C)C [Compound of example 31, (R)-N-tert-butyl-3-[(2S,3S)-2-hydroxy-3-(2-ethyl-3-hydroxybenzoyl)amino-4-phenylbutanoyl]-1,3-thiazolidine-4-carboxamide] | – | – | 276 µg/mL/min | 96.0 min | 73.81 min | 99 µg/mL/min | 36.24%
7 | CSC[C@H](NC(=O)COc1cccc2cnccc12)C(=O)N[C@@H](Cc1ccccc1)[C@H](O)C(=O)N1CSC[C@H]1C(=O)NC(C)(C)C [KNI-272, (R)-3-[(2S,3S)-3-(N-(isoquinoline-5-yloxy)acetylmethylthio-L-alanyl)amino-2-hydroxy-4-phenylbutanoyl]1,3-thiazolidine-4-N'-t-butylcarboxamide, reference compound] | – | – | 224 µg/mL/min | 23.2 min | 25.57 min | 98 µg/mL/min | 43.20%
